Tests used:
Aspergillus terreus [1] = test: Additive antifungal activity against Aspergillus terreus ATCC MYA-3633 assessed as fractional inhibitory concentration index measured for 72 hrs in presence of voriconazole; assay type: functional
Candida albicans [2] = test: Additive antifungal activity against Candida albicans ATCC MYA-1237 assessed as fractional inhibitory concentration index measured for 72 hrs in presence of voriconazole; assay type: functional
Candida albicans [3] = test: Synergistic antifungal activity against Candida albicans ATCC 64124 assessed as compound MIC measured after 48 hrs in presence of ketoconazole by checkboard based microplate reader analysis; assay type: functional
Nakaseomyces glabratus [4] = test: Additive antifungal activity against Candida glabrata ATCC 2001 assessed as fractional inhibitory concentration index measured for 72 hrs in presence of voriconazole; assay type: functional
Candida albicans [5] = test: Partial synergistic antifungal activity against Candida albicans ATCC 10231 assessed as fractional inhibitory concentration index measured for 72 hrs in presence of voriconazole; assay type: functional
Candida albicans [6] = test: Antifungal activity against Candida albicans ATCC 64124 measured after 48 hrs by broth microdilution analysis; assay type: functional
Candida albicans [7] = test: Additive antifungal activity against Candida albicans MYA-1003 assessed as fractional inhibitory concentration index measured for 72 hrs in presence of voriconazole
Candida albicans [8] = test: Additive antifungal activity against Candida albicans ATCC 64124 assessed as fractional inhibitory concentration index measured for 72 hrs in presence of voriconazole; assay type: functional
Candida albicans [9] = test: Additive antifungal activity against Candida albicans ATCC MYA-2876 assessed as fractional inhibitory concentration index measured for 72 hrs in presence of posaconazole; assay type: functional
Candida albicans [10] = test: Synergistic antifungal activity against Candida albicans ATCC 64124 assessed as compound MIC measured after 48 hrs in presence of posaconazole by checkboard based microplate reader analysis; assay type: functional
Nakaseomyces glabratus [11] = test: Antifungal activity against Candida glabrata ATCC 2001 measured after 48 hrs by broth microdilution analysis; assay type: functional
Candida albicans [12] = test: Additive antifungal activity against Candida albicans ATCC 90819 assessed as fractional inhibitory concentration index measured for 72 hrs in presence of voriconazole; assay type: functional
Candida albicans [13] = test: Antifungal activity against Candida albicans ATCC MYA-2876 measured after 48 hrs by broth microdilution analysis; assay type: functional
Candida albicans [14] = test: Synergistic antifungal activity against Candida albicans ATCC 64124 assessed as compound MIC measured after 48 hrs in presence of fluconazole by checkboard based microplate reader analysis; assay type: functional
Candida albicans [15] = test: Synergistic antifungal activity against Candida albicans ATCC 64124 assessed as compound MIC measured after 48 hrs in presence of voriconazole by checkboard based microplate reader analysis; assay type: functional
Candida albicans [16] = test: Additive antifungal activity against Candida albicans ATCC 90819 assessed as fractional inhibitory concentration index measured for 72 hrs in presence of posaconazole; assay type: functional
Candida albicans [17] = test: Additive antifungal activity against Candida albicans ATCC 64124 assessed as fractional inhibitory concentration index measured for 72 hrs in presence of fluconazole; assay type: functional
Candida albicans [18] = test: Additive antifungal activity against Candida albicans ATCC MYA-2310 assessed as fractional inhibitory concentration index measured for 72 hrs in presence of posaconazole; assay type: functional
Candida albicans [19] = test: Potency index, ratio of fluconazole MIC to test compound MIC for antifungal activity against Candida albicans ATCC 10231 measured after 48 hrs by broth microdilution analysis; assay type: functional
Candida albicans [20] = test: Synergistic antifungal activity against Candida albicans ATCC 10231 assessed as compound MIC measured after 48 hrs in presence of itraconazole by checkboard based microplate reader analysis; assay type: functional
Candida albicans [21] = test: Antifungal activity against Candida albicans ATCC 10231 measured after 48 hrs by broth microdilution analysis; assay type: functional
Candida albicans [22] = test: Additive antifungal activity against Candida albicans ATCC 10231 assessed as fractional inhibitory concentration index measured for 72 hrs in presence of fluconazole; assay type: functional
Nakaseomyces glabratus [23] = test: Synergistic antifungal activity against Candida glabrata ATCC 2001 assessed as fractional inhibitory concentration index measured for 72 hrs in presence of posaconazole; assay type: functional
Candida albicans [24] = test: Additive antifungal activity against Candida albicans ATCC 10231 assessed as fractional inhibitory concentration index measured for 72 hrs in presence of ketoconazole; assay type: functional
Candida albicans [25] = test: Additive antifungal activity against Candida albicans ATCC MYA-2876 assessed as fractional inhibitory concentration index measured for 72 hrs in presence of voriconazole; assay type: functional
Candida albicans [26] = test: Antifungal activity against Candida albicans ATCC MYA-1237 measured after 48 hrs by broth microdilution analysis; assay type: functional
Candida albicans [27] = test: Additive antifungal activity against Candida albicans ATCC 64124 assessed as fractional inhibitory concentration index measured for 72 hrs in presence of ketoconazole; assay type: functional
Candida albicans [28] = test: Synergistic antifungal activity against Candida albicans ATCC 10231 assessed as compound MIC measured after 48 hrs in presence of ketoconazole by checkboard based microplate reader analysis; assay type: functional
Candida albicans [29] = test: Additive antifungal activity against Candida albicans ATCC 10231 assessed as fractional inhibitory concentration index measured for 72 hrs in presence of itraconazole; assay type: functional
Aspergillus terreus [30] = test: Antifungal activity against Aspergillus terreus ATCC MYA-3633 measured after 48 hrs by broth microdilution analysis; assay type: functional
Candida albicans [31] = test: Additive antifungal activity against Candida albicans ATCC MYA-2310 assessed as fractional inhibitory concentration index measured for 72 hrs in presence of voriconazole; assay type: functional
Nakaseomyces glabratus [32] = test: Additive antifungal activity against Candida glabrata ATCC 2001 assessed as fractional inhibitory concentration index measured for 72 hrs in presence of posaconazole; assay type: functional
Candida albicans [33] = test: Additive antifungal activity against Candida albicans ATCC MYA-1237 assessed as fractional inhibitory concentration index measured for 72 hrs in presence of posaconazole; assay type: functional
Candida albicans [34] = test: Additive antifungal activity against Candida albicans ATCC 64124 assessed as fractional inhibitory concentration index measured for 72 hrs in presence of itraconazole; assay type: functional
Candida albicans [35] = test: Antifungal activity against Candida albicans ATCC MYA-2310 measured after 48 hrs by broth microdilution analysis; assay type: functional
Candida albicans [36] = test: Synergistic antifungal activity against Candida albicans ATCC 64124 assessed as compound MIC measured after 48 hrs in presence of itraconazole by checkboard based microplate reader analysis; assay type: functional
Candida albicans [37] = test: Synergistic antifungal activity against Candida albicans ATCC 10231 assessed as compound MIC measured after 48 hrs in presence of posaconazole by checkboard based microplate reader analysis; assay type: functional
Candida albicans [38] = test: Synergistic antifungal activity against Candida albicans ATCC 64124 assessed as fractional inhibitory concentration index measured for 72 hrs in presence of posaconazole; assay type: functional
Candida albicans [39] = test: Synergistic antifungal activity against Candida albicans ATCC 10231 assessed as compound MIC measured after 48 hrs in presence of fluconazole by checkboard based microplate reader analysis; assay type: functional
Candida albicans [40] = test: Antifungal activity against Candida albicans ATCC MYA-1003 measured after 48 hrs by broth microdilution analysis; assay type: functional
Candida albicans [41] = test: Synergistic antifungal activity against Candida albicans ATCC 10231 assessed as compound MIC measured after 48 hrs in presence of voriconazole by checkboard based microplate reader analysis; assay type: functional
Candida albicans [42] = test: Antifungal activity against Candida albicans ATCC 90819 measured after 48 hrs by broth microdilution analysis; assay type: functional

MIC (Candida albicans [3]): 64 µg/mL
MIC (Candida albicans [6]): > 128 µg/mL
MIC (Candida albicans [10]): 8 µg/mL
MIC (Nakaseomyces glabratus [11]): > 128 µg/mL
MIC (Candida albicans [13]): > 128 µg/mL
MIC (Candida albicans [14]): > 128 µg/mL
MIC (Candida albicans [15]): 128 µg/mL
MIC (Candida albicans [20]): > 128 µg/mL
MIC (Candida albicans [21]): > 128 µg/mL
MIC (Candida albicans [26]): > 128 µg/mL
MIC (Candida albicans [28]): > 128 µg/mL
MIC (Aspergillus terreus [30]): > 128 µg/mL
MIC (Candida albicans [35]): > 128 µg/mL
MIC (Candida albicans [36]): > 128 µg/mL
MIC (Candida albicans [37]): > 128 µg/mL
MIC (Candida albicans [39]): > 128 µg/mL
MIC (Candida albicans [40]): > 128 µg/mL
MIC (Candida albicans [41]): 32 µg/mL
MIC (Candida albicans [42]): > 128 µg/mL
SMILES: COc1ccc(C(=O)CCCN2CCC(O)(c3ccc(Br)cc3)CC2)cc1
fractional inhibitory concentration index (FICI) (Aspergillus terreus [1]): 2
fractional inhibitory concentration index (FICI) (Candida albicans [2]): 2
fractional inhibitory concentration index (FICI) (Nakaseomyces glabratus [4]): 2
fractional inhibitory concentration index (FICI) (Candida albicans [5]): 0.75
fractional inhibitory concentration index (FICI) (Candida albicans [7]): 2
fractional inhibitory concentration index (FICI) (Candida albicans [8]): 1.25
fractional inhibitory concentration index (FICI) (Candida albicans [9]): 2
fractional inhibitory concentration index (FICI) (Candida albicans [12]): 2
fractional inhibitory concentration index (FICI) (Candida albicans [16]): 2
fractional inhibitory concentration index (FICI) (Candida albicans [17]): 2
fractional inhibitory concentration index (FICI) (Candida albicans [18]): 2
Ratio (Candida albicans [19]): 16
fractional inhibitory concentration index (FICI) (Candida albicans [22]): 2
fractional inhibitory concentration index (FICI) (Nakaseomyces glabratus [23]): 0.51
fractional inhibitory concentration index (FICI) (Candida albicans [24]): 2
fractional inhibitory concentration index (FICI) (Candida albicans [25]): 2
fractional inhibitory concentration index (FICI) (Candida albicans [27]): 1
fractional inhibitory concentration index (FICI) (Candida albicans [29]): 2
fractional inhibitory concentration index (FICI) (Candida albicans [31]): 2
fractional inhibitory concentration index (FICI) (Nakaseomyces glabratus [32]): 0.5
fractional inhibitory concentration index (FICI) (Candida albicans [33]): 2
fractional inhibitory concentration index (FICI) (Candida albicans [34]): 2
fractional inhibitory concentration index (FICI) (Candida albicans [38]): 0.13
